# Test system: 616215-338-R-J1-PDC complex spheroids, viability % test/control
# Test: Anticancer human tumor 616215-338-R-J1-PDC patient-derived colon adenocarcinoma cell line growth inhibition [CLK]
# Conditions: for IC50: curve of first compound; for viability, T/C: stronger effect = lower value
# Description: A high-throughput screen of multi-cell type tumor spheroids was designed to identify active combinations of […] and targeted small molecules. Complex spheroids include a stromal component modeled by human endothelial cells (HUVEC) and fibroblasts modeled by human mesenchymal stem cells (MSCs). The concentration ranges selected for each drug and investigational agent were based upon clinically achievable concentrations if the clinical Cmax of the agent was known.
# Compounds. The drugs and investigational agents: cirtuvivint (SM08502; NSC835563), CC-671 (NSC850746), vemurafenib (NSC761431), tapotoclax (NSC804041), sotorasib (NSC818433), adagrasib (NSC831453), MRTX-1133 (NSC836407), BAY2416964 (NSC825713), copanlisib (NSC816437), inavolisib (NSC800729), abemaciclib (NSC768073), osimertinib (NSC779217), entinostat (NSC756642), eltanexor (KPT-8602, NSC794443), venetoclax (NSC766270), ceralasertib (NSC777638), bortezomib (NSC756655), olaparib (NSC753686), talazoparib (NSC767125), alisertib (NSC759677), peposertib (NSC802822), gemcitabine (NSC613327), 5-fluorouracil (NSC19893), SN-38 (NSC673596), oxaliplatin (NSC266046), paclitaxel (NSC125973), and doxorubicin (NSC123127), were obtained from the National Cancer Institute (NCI) Developmental Therapeutics Program Chemical Repository. The FDA-approved anticancer drug set is available from the Developmental Therapeutics Program at https://dtp.cancer.gov/organization/dscb/obtaining/available plates.htm. […] The stock solutions were prepared in dimethyl sulfoxide (DMSO, Sigma-Aldrich, St. Louis, MO, cat. D2650), except for the platinum complexes which were prepared in saline (Quality Biological, Gaithersburg, MD, cat. 114-055-101), at 800-fold the tested concentration and stored at -70 degrees C prior to their use. All drugs and investigational agents were tested over a range starting from a high concentration at or near the clinical Cmax and decreasing in half-log increments. If the clinical Cmax for an agent had not been determined, the highest concentration tested was 10 microM.
# Cell Culture. All cells were maintained in an incubator at 37 degrees C and 5% CO2 with 95% humidity. The PDC lines were cultured according to standard operating procedures established by the NCI PDMR. Briefly, all PDCs were thawed and cultured in Matrigel-coated flasks prepared with a working solution of 1X Ham's F-12 nutrient mix, without supplementation (Invitrogen, Waltham, MA, cat. 11765054), 100 U/mL penicillin-streptomycin (Invitrogen, cat. 15140122), and 2.5% Matrigel (Corning Inc., Corning, NY, cat. 354248) for the first three passages. The 947758-054-R-J2-PDC line was cultured in 6B/Colon 1A media, which includes advanced DMEM/F-12 (Thermo Fisher Scientific, cat. 12634028), 10 mM HEPES (Thermo Fisher Scientific, cat. 15630080), 1X GlutaMAX supplement (Thermo Fisher Scientific, cat. 35050061), 0.1 mg/mL primocin (InvivoGen, cat. ant-pm-2), 10% defined fetal bovine serum, heat inactivated (HyClone Laboratories Inc., cat. SH30070.03HI), 1.25 mM N-Acetyl-L-cysteine (Sigma-Aldrich, cat. A9165), 10 mM nicotinamide (Sigma-Aldrich, cat. N0636), 1X B-27 supplement (Thermo Fisher Scientific, cat. 17504044), 1X N-2 supplement (Thermo Fisher Scientific, cat. 17502048), and 10 microM Y-27632 dihydrochloride (Tocris Bioscience, cat. 1254). The 876862-298-R-J1-PDC was cultured in 6E media, which includes all 6B/Colon 1A media components plus 50% L-WRN conditioned media (ATCC, cat. CRL-3276), 50 ng/mL recombinant human EGF recombinant protein (hEGF; Thermo Fisher Scientific, cat. PHG0311), 10 ng/mL recombinant human fibroblast growth factor 10 (hGFG-10; PeproTech, cat. 100-26), 1 ng/mL recombinant human fibroblast growth factor 2 (hFGF-2; PeproTech, cat. 100-18B), and 1 µM prostaglandin E2 (PGE2; Tocris, cat. 2296). The 227483-062-R1-J1-PDC line was cultured in Panc media, containing all 6E components except hFGF-2, with the addition of 500 nM SB-431542 (Selleckchem, cat. S1067) and 10 nM gastrin (Tocris, cat. 3006). […]
# [1] = second compound 0.0316 µM, first compound 0.0316 µM
# [2] = second compound 0.0316 µM, first compound 0.1 µM
# [3] = second compound 0.0316 µM, first compound 0.316 µM
# [4] = second compound 0.0316 µM, first compound 1 µM
# [5] = second compound 0.0316 µM, first compound 3.16 µM
# [6] = second compound 0.0316 µM, first compound 10 µM
# [7] = second compound 0.1 µM, first compound 0.0316 µM
# [8] = second compound 0.1 µM, first compound 0.1 µM
# [9] = second compound 0.1 µM, first compound 0.316 µM
# [10] = second compound 0.1 µM, first compound 1 µM
# [11] = second compound 0.1 µM, first compound 3.16 µM
# [12] = second compound 0.1 µM, first compound 10 µM
# [13] = second compound 0.316 µM, first compound 0.0316 µM
# [14] = second compound 0.316 µM, first compound 0.1 µM
# [15] = second compound 0.316 µM, first compound 0.316 µM
# [16] = second compound 0.316 µM, first compound 1 µM
# [17] = second compound 0.316 µM, first compound 3.16 µM
# [18] = second compound 0.316 µM, first compound 10 µM
# [19] = second compound 1 µM, first compound 0.0316 µM
# [20] = second compound 1 µM, first compound 0.1 µM
# [21] = second compound 1 µM, first compound 0.316 µM
# [22] = second compound 1 µM, first compound 1 µM
# [23] = second compound 1 µM, first compound 3.16 µM
# [24] = second compound 1 µM, first compound 10 µM
# [25] = second compound 3.16 µM, first compound 0.0316 µM
# [26] = second compound 3.16 µM, first compound 0.1 µM
# [27] = second compound 3.16 µM, first compound 0.316 µM
# [28] = second compound 3.16 µM, first compound 1 µM
# [29] = second compound 3.16 µM, first compound 3.16 µM
# [30] = second compound 3.16 µM, first compound 10 µM
# [31] = second compound 10 µM, first compound 0.0316 µM
# [32] = second compound 10 µM, first compound 0.1 µM
# [33] = second compound 10 µM, first compound 0.316 µM
# [34] = second compound 10 µM, first compound 1 µM
# [35] = second compound 10 µM, first compound 3.16 µM
# [36] = second compound 10 µM, first compound 10 µM
# 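Also: spheroids exposed to agents for 7 days.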
# 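For viability, T/C in this document: 100% = DMSO vehicle wells.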
smiles,measurement,setting,value
Nc1ccccc1NC(=O)c1ccc(CNC(=O)OCc2cccnc2)cc1 + CN1CCN(c2cc(C(=O)Nc3cc4cc(-c5cnn(C)c5)ccc4cn3)ccn2)CC1,IC50,second compound 0.0316 µM,4240 nM
same,IC50,second compound 0.1 µM,2540 nM
same,IC50,second compound 0.316 µM,< 31.6 nM
same,IC50,second compound 1 µM,< 31.6 nM
same,IC50,second compound 3.16 µM,< 31.6 nM
same,IC50,second compound 10 µM,< 31.6 nM
same,"viability, T/C",[1],95%
same,"viability, T/C",[2],95.3%
same,"viability, T/C",[3],110%
same,"viability, T/C",[4],118%
same,"viability, T/C",[5],62.7%
same,"viability, T/C",[6],12.6%
same,"viability, T/C",[7],110%
same,"viability, T/C",[8],123%
same,"viability, T/C",[9],118%
same,"viability, T/C",[10],119%
same,"viability, T/C",[11],34.1%
same,"viability, T/C",[12],8.04%
same,"viability, T/C",[13],26.6%
same,"viability, T/C",[14],31.3%
same,"viability, T/C",[15],20.9%
same,"viability, T/C",[16],18.9%
same,"viability, T/C",[17],3.92%
same,"viability, T/C",[18],2.67%
same,"viability, T/C",[19],0.16%
same,"viability, T/C",[20],0.17%
same,"viability, T/C",[21],2.95%
same,"viability, T/C",[22],0.09%
same,"viability, T/C",[23],3.76%
same,"viability, T/C",[24],3.49%
same,"viability, T/C",[25],0.1%
same,"viability, T/C",[26],0.71%
same,"viability, T/C",[27],0.63%
same,"viability, T/C",[28],0.09%
same,"viability, T/C",[29],1.87%
same,"viability, T/C",[30],1.46%
same,"viability, T/C",[31],0.08%
same,"viability, T/C",[32],0.52%
same,"viability, T/C",[33],3.6%
same,"viability, T/C",[34],0.17%
same,"viability, T/C",[35],0.18%
same,"viability, T/C",[36],2.22%
O=C(c1cc(Cc2n[nH]c(=O)c3ccccc23)ccc1F)N1CCN(C(=O)C2CC2)CC1 + CN1CCN(c2cc(C(=O)Nc3cc4cc(-c5cnn(C)c5)ccc4cn3)ccn2)CC1,IC50,second compound 0.0316 µM,> 10000 nM
same,IC50,second compound 0.1 µM,> 10000 nM
same,IC50,second compound 0.316 µM,< 31.6 nM
same,IC50,second compound 1 µM,< 31.6 nM
same,IC50,second compound 3.16 µM,< 31.6 nM
same,IC50,second compound 10 µM,< 31.6 nM
same,"viability, T/C",[1],99.4%
same,"viability, T/C",[2],113%
same,"viability, T/C",[3],100%
same,"viability, T/C",[4],96.6%
same,"viability, T/C",[5],103%
same,"viability, T/C",[6],67.3%
same,"viability, T/C",[7],114%
same,"viability, T/C",[8],110%
same,"viability, T/C",[9],98.9%
same,"viability, T/C",[10],107%
same,"viability, T/C",[11],82.9%
same,"viability, T/C",[12],55.4%
same,"viability, T/C",[13],34.9%
same,"viability, T/C",[14],44.1%
same,"viability, T/C",[15],31.3%
same,"viability, T/C",[16],40.5%
same,"viability, T/C",[17],30.6%
same,"viability, T/C",[18],29.3%
same,"viability, T/C",[19],0.12%
same,"viability, T/C",[20],0.17%
same,"viability, T/C",[21],0.13%
same,"viability, T/C",[22],0.1%
same,"viability, T/C",[23],1.83%
same,"viability, T/C",[24],0.09%
same,"viability, T/C",[25],0.09%
same,"viability, T/C",[26],0.15%
same,"viability, T/C",[27],0.12%
same,"viability, T/C",[28],0.1%
same,"viability, T/C",[29],0.12%
same,"viability, T/C",[30],0.19%
same,"viability, T/C",[31],0.11%
same,"viability, T/C",[32],0.14%
same,"viability, T/C",[33],0.18%
same,"viability, T/C",[34],0.13%
same,"viability, T/C",[35],0.23%
same,"viability, T/C",[36],1.83%

# — PubChem BioAssay AID2060610 (Molecular Pharmacology Branch, DTP, NCI, 2025)
